Source: article PMC9146163, “Novel Au Carbene Complexes as Promising Multi-Target Agents in Breast Cancer Treatment” (Pharmaceuticals, 2022)
Where two headings read alike, the source gives them in different places.

What was measured:
MDA-MB-231 cells = experiment: MTT assay, MDA-MB-231; format: cell-based, human; settings: read-out: IC50 MDA-MB-231
Experimental: (§1) The five employed cell lines were purchased from American Type Culture Collection (ATCC, Manassas, VA, USA) and maintained as already reported. MCF-7, MDA-MB-231, MCF-10A and Hek-293 were cultured, as indicated by Iacopetta et al.. SkBr3 cells were maintained in DMEM high glucose, supplemented with 10% FBS and 100 μg/mL penicillin/streptomycin.
(§2) MTT assays [Sigma Aldrich (St.Louis, MO, USA)] were used in order to determine the in vitro anticancer activities of all the target compounds, as already reported.The compounds were tested at different concentrations (0.1-1-10-20-40 µM) for 72 h. Results are represented as percent (%) of basal and the IC50 values were calculated using GraphPad Prism 9 (GraphPad Software, La Jolla, CA, USA).

MCF-7 cells = experiment: MTT assay, MCF-7; format: cell-based, human; settings: read-out: IC50 MCF-7
Experimental: as §1, §2

SkBr3 cells = experiment: MTT assay, SkBr3; format: cell-based, human; settings: read-out: IC50 SkBr3
Experimental: as §1, §2

MCF-10A cells = experiment: MTT assay, normal MCF-10A; format: cell-based, human; settings: 72 h, read-out: IC50 MCF-10A
Experimental: (§3) The five employed cell lines were purchased from American Type Culture Collection (ATCC, Manassas, VA, USA) and maintained as already reported. […] SkBr3 cells were maintained in DMEM high glucose, supplemented with 10% FBS and 100 μg/mL penicillin/streptomycin.
[…] Results are represented as percent (%) of basal and the IC50 values were calculated using GraphPad Prism 9 (GraphPad Software, La Jolla, CA, USA).

Hek-293 cells [1] = experiment: MTT assay, normal Hek-293; format: cell-based, human; settings: read-out: IC50 Hek-293
Experimental: as §3, §2

[2] = LogP determination (1-octanol/water, UV/vis); format: physicochemical; settings: log[complex]oct/[complex]H2O, 55 μM, UV-Vis
Experimental: The logarithm of the partition coefficient (LogP) was evaluated by making a slight modification to the procedure reported in ref. [79]. Equal volumes of 1-octanol and water (distilled after milli-Q purification) were stirred for 20 h at room temperature. Then, they were separated to give 1-octanol-saturated water and water-saturated 1-octanol. Six (10, 20, 40, 50, 60 and 100 μM) standard concentrations of the compounds were prepared from the water-saturated 1-octanol. Analysis using UV/vis spectroscopy was used to obtain a calibration curve of absorbance vs. concentration. For each complex, a solution was prepared in the water-saturated 1-octanol (55 μM) and an equal volume of 1-octanol-saturated water was added. The solutions (biphasic) were mixed for 15 min and then centrifuged for 1h at 6500 rpm to allow separation.
Concentration in water-saturated 1-octanol was determined by UV-Vis spectroscopy. Reported LogP is defined as log[complex]oct/[complex]H2O.

[3] = molecular target: T1, Labeled Rabbit Muscle Actin (Oryctolagus cuniculus, UniProt P68135); experiment: In vitro actin polymerization assay; format: biochemical; settings: 5 µM; for actin polymerization curve, final value: end of 1 h kinetic read, control about 37.000 RFU
T1 construct: purchased Abcam (Actin Polymerization/Depolymerization Assay Kit)
Experimental: (§4) The ability of the tested compounds to interfere with the actin polymerization and depolymerization reaction was measured using an Actin Polymerization/Depolymerization Assay Kit purchased from Abcam, following the manufacturer’s instructions. […] For the polymerization assay, reconstituted actin was mixed with supplemented Buffer G and samples in a white 96-well plate and then the polymerization reaction was induced with the addition of the Buffer P supplemented with 10 mM ATP. The solution was mixed and the data acquisition started. For the Actin Depolymerization Assay, supplemented Buffers P and G were mixed and incubated in a white 96-well plate at room temperature for one hour to polymerize the actin, protected from light. Then samples were added and the data acquisition started. Latrunculin A and Cytochalasin B were used as control molecules at a concentration of 5 μM. For both the assays, the assembly of actin filaments was determined by measuring the fluorescence (Ex/Em: 365/410 nm) in kinetic mode for 1 h at room temperature using a microplate reader.

[4] = molecular target: T1, Labeled Rabbit Muscle Actin; experiment: In vitro actin depolymerization assay; format: biochemical; settings: for effect on already polymerized actin (in words): 5 µM
Experimental: as §4

vimentin in MCF-7 cells = experiment: Vimentin expression (immunofluorescence), MCF-7; format: cell-based, human; settings: fluorescence quantification; IC50 value, 24 h
Experimental: (§5) The MitoTracker Deep Red FM probe (MitoTracker Mitochondrion-Selective Probes, Invitrogen European Headquarters, Paisley, PA4 9RF, UK) was used for mitochondrial staining, as previously described. For immunofluorescence analysis, the cells were seeded and further processed, as reported by Iacopetta et al.. The primary antibodies used were: rabbit anti-β-Actin and vimentin (Santa Cruz Biotechnology, Dallas, TX, USA), mouse anti cytochrome c and NF-κB p65 (Abcam, Cambridge, UK), diluted 1:100 in bovine serum albumin (BSA) 2% overnight at 4 °C. The secondary antibodies were: Alexa Fluor® 488 conjugate goat-anti-rabbit and Alexa Fluor® 568 conjugate goat-anti-mouse (Thermo Fisher Scientific, MA, USA), diluted 1:500 and incubated for 2h at 37 °C. DAPI 0.2 μg/mL (Sigma Aldrich, Milan, Italy) was used for nuclei staining. […] All the images were acquired and processed using the LAS-X software.
Protein lysates underwent the SDS-PAGE process, as already defined. Then lysates were resolved on a 7.5% SDS polyacrylamide gel, transferred to a nitrocellulose membrane, and probed with antibodies against vimentin and GAPDH (Santa Cruz Biotechnology, Dallas, TX, USA). […] The images are representative of three independent experiments.

[5] = system: β-actin in MDA-MB-231 cells; experiment: Actin immunofluorescence, MDA-MB-231; format: cell-based, human; settings: 24 h; compound 1 at its IC50 value, LA 0.1 µM
Experimental: as §5

β-actin in MCF-7 cells = experiment: Actin immunofluorescence, MCF-7; format: cell-based, human; settings: 24 h; compound 6 at its IC50 value, LA 0.1 µM
Experimental: as §5

β-actin in MCF-10A cells = experiment: Actin immunofluorescence, MCF-10A; format: cell-based, human; settings: 24 h; compounds at their IC50 value, LA 0.1 μM
Experimental: as §5
E: Figure S1. Actin immunofluorescence studies in MCF-10A cells […]
Figure S1. Actin immunofluorescence studies. M CF-10A cells were treat ed with compounds 1 and […]
treatment, the cells were methanol fixed, incubated with primary and secondary antibodies, stained with DAPI and observed and imaged under the inverted fluorescence microscope at 20x […]
A: nuclear stain with DAPI (λex/λem = 350/460 nm); Panels B: β-actin ([…]); Panels C: show a merge. R epresentative fields are shown.

Hek-293 cells [6] = experiment: MTT assay, normal Hek-293; format: cell-based, human; settings: up to the concentration of 200 μM
[7] = MTT, 72 h, normal cells, mean ± SD

Row | SMILES | IC50 (MDA-MB-231 cells; MTT, 72 h, mean ± SD) [µM] | IC50 (MCF-7 cells; MTT, 72 h, mean ± SD) [µM] | IC50 (SkBr3 cells; MTT, 72 h, mean ± SD) [µM] | IC50 (MCF-10A cells; MTT, normal cells, mean ± SD) [µM] | IC50 (Hek-293 cells [1]; [7]) [µM] | LogP [2] | also measured
1 | N.N.[Cl][Pt][Cl] [Cisplatin, reference compound] | 28.7 ± 0.4 | 35.8 ± 0.7 | 7.4 ± 0.9 | 81.3 ± 0.6 | 16.3 ± 0.9 | – | –
2 | CC(=O)[O-].Cn1ccn(CC(O)c2ccccc2)[c]1=[Au+]=[c]1n(C)ccn1CC(O)c1ccccc1 (centres unmarked) [Compound 5] | 58.5 ± 1.2 | 21.9 ± 0.5 | 58.9 ± 1.2 | 27.8 ± 0.7 | > 200 | 0.12 | –
3 | CC(=O)[O-].COC(Cn1ccn(C)[c]1=[Au+]=[c]1n(C)ccn1CC(OC)c1ccccc1)c1ccccc1 (centres unmarked) [Compound 4, Bis [(N-methyl, N’(2-methoxy-2-phenyl-ethyl)imidazole-2-ylidine]gold(I)] acetate] | 3 ± 0.7 | 9.4 ± 0.6 | 2.6 ± 0.7 | 5.2 ± 0.9 | 7.6 ± 1 | – | –
4 | C=C1[C@@H](C)[C@H]2[C@H](Cc3ccccc3)NC(=O)[C@]23OC(=O)/C=C/[C@H](O)CCC[C@@H](C)C/C=C/[C@H]3[C@@H]1O [cytochalasin B] | – | – | – | – | – | – | effect on actin polymerization (in words) [3]: impeded the actin polymerization; actin polymerization curve, final value [3]: ended almost at the same RFU value of the beginning; effect on already polymerized actin (in words) [4]: did not produce a significant decrease
5 | CC(=O)[O-].Cn1ccn(CC([O-])c2ccccc2)[c]1=[Au+]=[c]1n(C)ccn1CC([O-])c1ccccc1.[Na+].[Na+] (centres unmarked) [Compound 2] | 22.6 ± 1.1 | 30.6 ± 0.7 | 38.4 ± 0.4 | 39.6 ± 0.5 | > 200 | 0.047 | reduction of vimentin expression with respect to the control, MCF-7 (vimentin in MCF-7 cells): two times lower
6 | C/C1=C/C(=O)O[C@@H]2C[C@@H](CC[C@H](C)/C=C\C=C\CC1)O[C@@](O)([C@@H]1CSC(=O)N1)C2 [Latrunculin A, reference compound] | – | – | – | – | – | – | IC50 (MDA-MB-231 cells; Homo sapiens, MDA-MB-231, 72 h): 0.024 µM; IC50 (MCF-7 cells; Homo sapiens, MCF7, 72 h): 0.14 µM; IC50 (SkBr3 cells; Homo sapiens, SK-BR-3, 72 h): 0.7 ± 1.2 µM; IC50 (MCF-10A cells; Homo sapiens, MCF-10A): 0.045 µM; IC50 (Hek-293 cells [1]; Homo sapiens, HEK293, 72 h): 0.093 µM; actin polymerization curve, value 14 min after the reaction started [3]: about 12.000 RFU; effect on actin polymerization (in words) [3]: impeded the actin polymerization; actin polymerization curve, final value [3]: about 10.000 RFU; effect on already polymerized actin (in words) [4]: triggered the actin depolymerization; actin depolymerization curve, end value ([4]; 5 µM added to actin polymerized for one hour, followed for another hour): 14.000 RFU; actin depolymerization curve, value after the net decrease at about seven minutes ([4]; 5 µM added to actin polymerized for one hour, initial value around 28.000 RFU): about 16.800 RFU; actin organization in MDA-MB-231 cells [5]: complete disorganization of the actin system; actin organization in MCF-7 cells (β-actin in MCF-7 cells): complete disorganization of the actin system; actin organization in MCF-10A cells (β-actin in MCF-10A cells): aberrant actin arrangement; cytotoxicity against the normal Hek-293 cells (in words) (Hek-293 cells [6]): drastically reduced
7 | COC(Cn1ccn(C)[c]1=[Au+]=[c]1n(C)ccn1CC(OC)c1ccccc1)c1ccccc1.[Cl-] (centres unmarked) [Compound 3] | 2.2 ± 1.1 | 3.3 ± 1.4 | 10.9 ± 0.7 | 13.3 ± 1 | 39 ± 0.9 | 0.62 | –
